Data published in US20260224548A1 (priority 2022, published 2026).
Like-named read-outs stand apart in the source and are kept apart here.

Key:
HsEH = biological target: T1, HsEH (Homo sapiens, UniProt P34913); assay: biochemical; assay type: biochemical
T1 sequence (P34913 1-555): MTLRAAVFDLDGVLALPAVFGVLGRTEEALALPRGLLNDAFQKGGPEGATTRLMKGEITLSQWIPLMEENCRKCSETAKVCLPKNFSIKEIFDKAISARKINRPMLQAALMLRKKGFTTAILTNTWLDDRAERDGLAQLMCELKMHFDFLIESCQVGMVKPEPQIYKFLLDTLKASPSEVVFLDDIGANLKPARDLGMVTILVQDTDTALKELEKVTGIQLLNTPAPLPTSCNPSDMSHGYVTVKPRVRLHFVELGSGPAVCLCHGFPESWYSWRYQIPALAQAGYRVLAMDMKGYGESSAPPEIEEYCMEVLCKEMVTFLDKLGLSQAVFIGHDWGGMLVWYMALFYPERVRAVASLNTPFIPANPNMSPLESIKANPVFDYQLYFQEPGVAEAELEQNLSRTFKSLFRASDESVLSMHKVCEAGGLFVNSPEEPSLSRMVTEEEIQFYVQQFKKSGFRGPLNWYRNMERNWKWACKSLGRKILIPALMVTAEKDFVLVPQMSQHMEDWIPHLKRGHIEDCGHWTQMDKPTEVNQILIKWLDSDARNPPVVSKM
Source text: (§1) Detection principle: a specific substrate, (3-phenyl-oxy)-acetic acid cyano-(6-methoxy-naphthalen-2-yl)methyl ester, namely PHOME, is non-fluorescent but can be hydrolyzed under the action of sEH enzyme to generate a product 6-methoxy-2-naphthaldehyde. The 6-methoxy-2-naphthaldehyde can emit fluorescence with a wavelength of 465 nm under 330 nm light wave excitation, and an intensity of the detected fluorescence signal is inversely proportional to an inhibitory effect on the sEH enzyme. Based on the above principle, the inhibition rates of samples with different concentrations were calculated compared with the positive control group. The IC50 value of the compound was calculated based on the inhibition rate and concentration using SPSS 20 software.
(§2) 25 mM Tris-HCl buffer (pH=7.4, containing 0.1 mg/mL BSA): […] BAS was added to 12.5 mL of 1 M Tris-HCl buffer, followed by diluting with purified water, and a resulting mixture was adjusted to a pH value of 7.4 with hydrochloric acid, and diluted to 500 mL.
(§3) PHOME solution: 0.79 mg PHOME was dissolved in 106 μL DMSO to obtain a 20 mM PHOME solution, which was diluted to ⅓ mM with Tris-HCl buffer before use.
(§4) sEH solution: sEH (5 mg/mL) stock solution was stored in a refrigerator at −80° C. and diluted to 4 μg/mL with 25 mM Tris-HCl buffer before use.
(§5) A sample powder to be tested was dissolved in DMSO to a 20 mM solution, stored in a refrigerator at −20° C. for later use, and diluted with Tris-HCl buffer to corresponding concentrations when used.
(§6) Experimental design: solvent group, 100% activity group (A), inhibitor group (B), positive control group (C), as shown in Table 1.
(§7) Three replicate wells were set for each sample, and the average value of the three replicate wells was the fluorescence value (F) of the compound to be tested. […] The IC50 value of the compound was calculated based on the inhibition rate and concentration using SPSS 20 software.

MsEH = biological target: T2, MsEH (Mus musculus, UniProt P34914); assay: sEH inhibitory activity, PHOME fluorescence assay (MsEH); assay type: biochemical
T2 sequence (P34914 1-554): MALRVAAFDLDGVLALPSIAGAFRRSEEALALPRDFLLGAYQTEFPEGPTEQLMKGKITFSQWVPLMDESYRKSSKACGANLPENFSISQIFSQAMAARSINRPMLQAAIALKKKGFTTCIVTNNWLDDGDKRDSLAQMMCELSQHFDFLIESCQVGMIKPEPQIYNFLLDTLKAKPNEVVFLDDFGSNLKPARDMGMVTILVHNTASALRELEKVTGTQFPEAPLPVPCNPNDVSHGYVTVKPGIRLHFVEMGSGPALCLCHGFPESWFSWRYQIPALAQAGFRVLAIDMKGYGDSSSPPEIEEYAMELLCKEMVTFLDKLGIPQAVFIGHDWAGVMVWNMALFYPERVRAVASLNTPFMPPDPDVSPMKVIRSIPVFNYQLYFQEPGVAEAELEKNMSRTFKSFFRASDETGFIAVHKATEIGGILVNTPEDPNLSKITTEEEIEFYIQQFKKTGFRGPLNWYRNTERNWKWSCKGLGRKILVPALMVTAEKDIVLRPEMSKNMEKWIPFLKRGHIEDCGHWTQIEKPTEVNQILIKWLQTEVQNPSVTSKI
Source text: as §1, §2, §3, §4, §5, §6, §7

[1] = PHOME substrate 50 μM, sEH 400 ng/ml, 37° C., 10 min, fluorescence 330/465 nm, read-out: HsEH IC50 (nM) Inhibitory activity against HsEH
[2] = PHOME substrate 50 μM, sEH 400 ng/ml, 37° C., 10 min, fluorescence 330/465 nm, read-out: MsEH IC50 (nM) Inhibitory activity against MsEH

| Compound | IC50 (HsEH; [1]) | IC50 (MsEH) | IC50 (MsEH; [2]) | IC50 (HsEH) |
| --- | --- | --- | --- | --- |
| CC12CC3CC(C)(C1)CC(NC(=O)Nc1ccc(CN4CCC[C@H](C(=O)NC(CO)(CO)CO)C4)cc1F)(C3)C2 [CL-115, (S)—N-(1,3-dihydroxy-2-(hydroxymethyl)propan-2-yl)-1-(4-(3-((1r,3R,5S,7S)-3,5-dimethyladamantan-1-yl)ureido)-3-fluorobenzyl) piperidine-3-carboxamide] | 0.14 nM | 0.32 nM |  |  |
| CC12CC3CC(C)(C1)CC(NC(=O)Nc1ccc(C(=O)N[C@H]4CC[C@H](C(=O)NC(CO)(CO)CO)CC4)cc1F)(C3)C2 [ZT-115, N-((1r,4R)-4-((1,3-dihydroxy-2-(hydroxymethyl)propan-2-yl)carbamoyl)cyclohexyl)-4-(3-((1r,3R,5S,7r)-3,5-dimethyladamantan-1-yl)ureido)-3-fluorobenzamide] | 0.35 nM | 0.12 nM |  |  |
| CC(O)CNC(=O)[C@H]1CCCN(Cc2ccc(NC(=O)NC34CC5CC(C)(CC(C)(C5)C3)C4)c(F)c2)C1 (stereo partly drawn) [CL-113, (3S)-1-(4-(3-((1r,3R,5S,7S)-3,5-dimethyladamantan-1-yl)ureido)-3-fluorobenzyl)-N-(2-hydroxypropyl) piperidine-3-carboxamide] | 0.28 nM | 0.58 nM |  |  |
| C=CC(=O)N1CCCN(C(=O)[C@H]2CCCN(Cc3ccc(NC(=O)NC45CC6CC(C)(CC(C)(C6)C4)C5)c(F)c3)C2)CC1 [CL-201, 1-(4-(((S)-3-(4-acryloyl-1,4-diaza-1-carbonyl)piperidin-1-yl)methyl)-2-fluorophenyl)-3-((1r,3R,5S,7S)-3,5-dimethyladamantan-1-yl) urea] | 0.42 nM | 1.1 nM |  |  |
| CCC(C)C(=O)N1CCC(CC(=O)N2CCCN(Cc3ccc(NC(=O)NC45CC6CC(C)(CC(C)(C6)C4)C5)c(F)c3)CC2)CC1 [GL-2, 1-((1r,3R,5S,7r)-3,5-dimethyladamantan-1-yl)-3-(2-fluoro-4-((4-(2-(1-(2-methylbutyryl)piperidin-4-yl)acetyl)-1,4-diaza-1-yl)methyl)phenyl) urea] | 0.77 nM | 0.16 nM |  |  |
| CC(O)CNC(=O)[C@H]1CCCN(C(=O)c2ccc(NC(=O)NC34CC5C[C@@](C)(C3)C[C@](C)(C5)C4)c(F)c2)C1 (stereo partly drawn) [CC-113, (3S)-1-(4-(3-((1r,3R,5S,7S)-3,5-dimethyladamantan-1-yl)ureido)-3-fluorobenzoyl)-N-(2-hydroxypropyl) piperidine-3-carboxamide] | 0.28 nM |  | 0.23 nM |  |
| CC12CC3CC(C)(C1)CC(NC(=O)Nc1ccc(CN4CCC(C(=O)NC(CO)CO)CC4)cc1F)(C3)C2 [CL-119, N-(1,3-dihydroxypropan-2-yl)-1-(4-(3-((1r,7r)-3,5-dimethyladamantan-1-yl)ureido)-3-fluorobenzyl) piperidine-4-carboxamide] |  | 2.25 nM |  | 31.6 nM |
| CC12CC3CC(C)(C1)CC(NC(=O)Nc1ccc(CN4CCC[C@H](C(=O)N5CCCN(C(=O)C6CC6)CC5)C4)cc1F)(C3)C2 [CL-204] | 0.42 nM | 0.8 nM |  |  |
| CC12CC3CC(C)(C1)CC(NC(=O)Nc1ccc(C(=O)N4CCC(C(=O)N5CCN(CCO)CC5)CC4)cc1F)(C3)C2 [CC-112, 1-((1r,3R,5S,7r)-3,5-dimethyladamantan-1-yl)-3-(2-fluoro-4-(4-(4-(2-hydroxyethyl)piperazine-1-carbonyl)piperidine-1-carbonyl)phenyl) urea] |  | 0.32 nM |  | 12.5 nM |
| CCN(CC)C(=O)C1CCN(C(=O)c2ccc(NC(=O)NC34CC5CC(C)(CC(C)(C5)C3)C4)c(F)c2)CC1 [CC-111, 1-(4-(3-((1r,3R,5S,7r)-3,5-dimethyladamantan-1-yl)ureido)-3-fluorobenzoyl)-N,N-diethylpiperidine-4-carboxamide] | 2.2 nM | 0.53 nM |  |  |
| CC(O)CNC(=O)C1CCN(C(=O)c2ccc(NC(=O)NC34CC5CC(C)(CC(C)(C5)C3)C4)c(F)c2)CC1 [CC-115, 1-(4-(3-((1r,3R,5S,7r)-3,5-dimethyladamantan-1-yl)ureido)-3-fluorobenzoyl)-N-(2-hydroxypropyl) piperidine-4-carboxamide] | 4.5 nM | 0.18 nM |  |  |
| CC12CC3CC(C)(C1)CC(NC(=O)Nc1ccc(CN4CCC[C@H](C(=O)N5CCN(CCO)CC5)C4)cc1F)(C3)C2 [CL-116, 1-((1r,3R,5S,7S)-3,5-dimethyladamantan-1-yl)-3-(2-fluoro-4-(((S)-3-(4-(2-hydroxyethyl)piperazine-1-carbonyl)piperidin-1-yl)methyl)phenyl) urea] | 0.98 nM | 0.55 nM |  |  |
| 1-((1r,3R,5S,7S)-3,5-dimethyladamantan-1-yl)-3-(2-fluoro-4-(((3S)-3-(4-(2-methylbutanoyl)-1,4-diaza-1-carbonyl) piperidin-1-yl)methyl)phenyl) urea [CL-103] | 0.25 nM |  | 0.62 nM |  |
| CC(CN(C)C)N1CCC(CC(=O)N2CCCN(C(=O)c3ccc(NC(=O)NC45CC6CC(C)(CC(C)(C6)C4)C5)c(F)c3)CC2)CC1 [CC-124, 1-((1r,3R,5S,7r)-3,5-dimethyladamantan-1-yl)-3-(4-(4-(2-(1-(1-(dimethylamino)propan-2-yl)piperidin-4-yl)acetyl)-1,4-diaza-1-carbonyl)-2-fluorophenyl) urea] | 19.6 nM | 0.8 nM |  |  |
| CC12CC3CC(C)(C1)CC(NC(=O)Nc1ccc(CN4CCC[C@H](C(=O)NCCO)C4)cc1F)(C3)C2 [CL-114, (S)-1-(4-(3-((1r,3R,5S,7S)-3,5-dimethyladamantan-1-yl)ureido)-3-fluorobenzyl)-N-(2-hydroxyethyl) piperidine-3-carboxamide] | 0.63 nM | 0.18 nM |  |  |
| CC12CC3CC(C)(C1)CC(NC(=O)Nc1ccc(CN4CCCN(C(=O)CC5CCN(CCO)CC5)CC4)cc1F)(C3)C2 [GL-21, 1-((1r,3R,5S,7r)-3,5-dimethyladamantan-1-yl)-3-(2-fluoro-4-((4-(2-(1-(2-hydroxyethyl)piperidin-4-yl)acetyl)-1,4-diaza-1-yl)methyl)phenyl) urea] |  | 0.61 nM |  | 4.69 nM |
| CCN(CC)C(=O)[C@H]1CCCN(C(=O)c2ccc(NC(=O)NC34CC5CC(C)(CC(C)(C5)C3)C4)c(F)c2)C1 [CC-110, (S)-1-(4-(3-((1r,3R,5S,7S)-3,5-dimethyladamantan-1-yl)ureido)-3-fluorobenzoyl)-N,N-diethylpiperidine-3-carboxamide] | 0.35 nM | 0.38 nM |  |  |
| CC(O)CNC(=O)C1CCN(Cc2ccc(NC(=O)NC34CC5CC(C)(CC(C)(C5)C3)C4)c(F)c2)CC1 (centres unmarked) [CL-120, 1-(4-(3-((1r,7r)-3,5-dimethyladamantan-1-yl)ureido)-3-fluorobenzyl)-N-(2-hydroxypropyl) piperidine-4-carboxamide] |  | 0.47 nM |  | 6 nM |
| CC12CC3CC(C)(C1)CC(NC(=O)Nc1ccc(C(=O)N4CCC(C(=O)NCCO)CC4)cc1F)(C3)C2 [CC-114, 1-(4-(3-((1r,3R,5S,7r)-3,5-dimethyladamantan-1-yl)ureido)-3-fluorobenzoyl)-N-(2-hydroxyethyl) piperidine-4-carboxamide] | 3.43 nM | 0.26 nM |  |  |
